Source: ChEMBL document CHEMBL1909511, “Inhalation by design: novel tertiary amine muscarinic M₃ receptor antagonists with slow off-rate binding kinetics for inhaled once-daily treatment of chronic obstructive pulmonary disease” (J Med Chem, 2011)
pKi: −log10 of the molar value.

What was measured:
[1] = Total clearance in iv dosed rat; assay type: ADME, organism-based; conditions: in vivo
Canis familiaris [2] = assay: Bronchodilator activity in Beagle dog assessed as inhibition of methacholine-induced lung resistance after cumulative intratracheal administration in micelle solution at hourly intervals challenged each time 1 hr later with methacholine; assay type: functional, Canis lupus familiaris
[3] = biological target: T1, Muscarinic acetylcholine receptor M2 (Homo sapiens) (UniProt P08172); assay: Displacement of [3H]-NMS from human recombinant M2 receptor expressed in CHO cells assessed as dissociation half life at 100 fold human M2 receptor binding Ki concentration after 24 hrs by dilution-offset filter binding assay; assay type: cell-based
T1 sequence (whole entry): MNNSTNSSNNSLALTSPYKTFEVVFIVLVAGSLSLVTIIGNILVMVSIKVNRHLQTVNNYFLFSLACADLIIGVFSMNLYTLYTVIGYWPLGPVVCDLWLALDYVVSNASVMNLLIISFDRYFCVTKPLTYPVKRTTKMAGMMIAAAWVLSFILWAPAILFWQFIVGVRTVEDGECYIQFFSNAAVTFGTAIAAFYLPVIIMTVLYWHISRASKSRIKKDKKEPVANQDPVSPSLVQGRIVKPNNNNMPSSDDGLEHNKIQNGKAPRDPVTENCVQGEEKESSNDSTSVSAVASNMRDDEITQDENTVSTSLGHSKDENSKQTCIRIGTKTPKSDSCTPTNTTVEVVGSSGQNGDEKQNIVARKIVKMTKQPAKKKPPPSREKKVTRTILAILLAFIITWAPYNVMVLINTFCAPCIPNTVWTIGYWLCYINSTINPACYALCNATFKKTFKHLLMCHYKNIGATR

Oryctolagus cuniculus = assay: Toxicity in rabbit lung cough model assessed as induction of cough production at 2000 ug administered intratracheally; assay type: organism-based; conditions: in vivo, inhaled_or_intranasal
Canis familiaris [4] = assay: Toxicity in methacholine challenged Beagle dog assessed effect on heart rate at 10 ug intratracheally administered as single dose in micelle solution; assay type: organism-based, Canis lupus familiaris; conditions: in vivo, inhaled_or_intranasal
MDR1 = assay: Apparent permeability across basal to apical side in dog MDCK expressing MDR1; assay type: ADME, cell-based, Canis lupus familiaris
Rattus norvegicus = assay: Unbound clearance in iv dosed rat; assay type: ADME, organism-based; conditions: in vivo
Canis familiaris [5] = assay: Toxicity in methacholine challenged Beagle dog assessed effect on heart rate at 3 ug intratracheally administered as single dose in micelle solution; assay type: organism-based, Canis lupus familiaris; conditions: in vivo, inhaled_or_intranasal
[6] = Volume of distribution at steady state in iv dosed rat; assay type: ADME, organism-based; conditions: in vivo, read-out: Vdss
[7] = Intrinsic clearance in human hepatocytes assessed per million cells
[8] = biological target: Muscarinic acetylcholine receptor M3 (Cavia porcellus) (UniProt Q8VH26); assay: Antagonist activity at M3 receptor in Dunkin-Hartley guinea pig tracheal strips assessed as time taken for electrically field-stimulated contractile response to recover by 25 percent of inhibition at Emax after 2 hrs; assay type: functional
[9] = Plasma protein binding in iv dosed rat; assay type: ADME, organism-based; conditions: read-out: PPB (converted)
[10] = Half life in iv dosed rat; assay type: ADME, organism-based; conditions: in vivo
[11] = biological target: T2, Muscarinic acetylcholine receptor M1 (Homo sapiens, UniProt P11229); assay: Displacement of [3H]-NMS from human recombinant M1 receptor expressed in CHO cells after 24 hrs by filter binding assay; assay type: cell-based
T2 sequence (P11229 whole entry): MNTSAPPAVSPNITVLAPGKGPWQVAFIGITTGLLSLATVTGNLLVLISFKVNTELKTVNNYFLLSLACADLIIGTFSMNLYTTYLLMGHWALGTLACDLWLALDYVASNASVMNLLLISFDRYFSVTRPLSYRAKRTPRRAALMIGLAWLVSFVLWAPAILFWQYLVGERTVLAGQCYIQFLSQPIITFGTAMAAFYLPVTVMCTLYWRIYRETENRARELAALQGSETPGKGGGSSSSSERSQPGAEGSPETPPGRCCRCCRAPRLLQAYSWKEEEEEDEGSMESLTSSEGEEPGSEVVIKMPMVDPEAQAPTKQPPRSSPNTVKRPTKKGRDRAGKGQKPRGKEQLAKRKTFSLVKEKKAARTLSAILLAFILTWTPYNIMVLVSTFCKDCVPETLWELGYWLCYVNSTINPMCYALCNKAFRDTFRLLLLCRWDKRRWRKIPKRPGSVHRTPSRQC

[12] = Intrinsic clearance in human liver microsomes assessed per mg of protein by glucuronidation assay in presence of Brijj-58 and UDPGA
[13] = biological target: T3, Muscarinic acetylcholine receptor M1 (Homo sapiens) (UniProt P11229); assay: Displacement of [3H]-NMS from human recombinant M1 receptor expressed in CHO cells assessed as dissociation half life at 100 fold human M1 receptor binding Ki concentration after 24 hrs by dilution-offset filter binding assay; assay type: cell-based
T3 sequence (whole entry): T2 sequence (P11229 whole entry)

[14] = biological target: T4, Muscarinic acetylcholine receptor M2 (Homo sapiens, UniProt P08172); assay: Displacement of [3H]-NMS from human recombinant M2 receptor expressed in CHO cells after 24 hrs by filter binding assay; assay type: cell-based
T4 sequence (P08172 whole entry): T1 sequence (whole entry)

[15] = biological target: T5, Muscarinic acetylcholine receptor M4 (Homo sapiens, UniProt P08173); assay: Displacement of [3H]-NMS from human recombinant M4 receptor expressed in CHO cells after 24 hrs by filter binding assay; assay type: cell-based
T5 sequence (P08173 whole entry): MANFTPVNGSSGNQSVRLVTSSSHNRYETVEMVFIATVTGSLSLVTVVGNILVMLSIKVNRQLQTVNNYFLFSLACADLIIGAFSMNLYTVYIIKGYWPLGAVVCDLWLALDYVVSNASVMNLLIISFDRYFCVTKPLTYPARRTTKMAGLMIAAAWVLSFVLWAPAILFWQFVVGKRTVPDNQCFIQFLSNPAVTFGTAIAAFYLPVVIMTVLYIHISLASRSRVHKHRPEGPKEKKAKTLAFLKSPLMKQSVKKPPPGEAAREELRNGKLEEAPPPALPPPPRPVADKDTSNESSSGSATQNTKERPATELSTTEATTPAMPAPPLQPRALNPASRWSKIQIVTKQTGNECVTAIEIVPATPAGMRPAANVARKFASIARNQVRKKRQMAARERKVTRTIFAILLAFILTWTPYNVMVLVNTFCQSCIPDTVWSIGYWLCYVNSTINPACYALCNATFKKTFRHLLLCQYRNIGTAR

Muscarinic acetylcholine receptor M3 (Cavia porcellus), sequence (Q8VH26 1-587): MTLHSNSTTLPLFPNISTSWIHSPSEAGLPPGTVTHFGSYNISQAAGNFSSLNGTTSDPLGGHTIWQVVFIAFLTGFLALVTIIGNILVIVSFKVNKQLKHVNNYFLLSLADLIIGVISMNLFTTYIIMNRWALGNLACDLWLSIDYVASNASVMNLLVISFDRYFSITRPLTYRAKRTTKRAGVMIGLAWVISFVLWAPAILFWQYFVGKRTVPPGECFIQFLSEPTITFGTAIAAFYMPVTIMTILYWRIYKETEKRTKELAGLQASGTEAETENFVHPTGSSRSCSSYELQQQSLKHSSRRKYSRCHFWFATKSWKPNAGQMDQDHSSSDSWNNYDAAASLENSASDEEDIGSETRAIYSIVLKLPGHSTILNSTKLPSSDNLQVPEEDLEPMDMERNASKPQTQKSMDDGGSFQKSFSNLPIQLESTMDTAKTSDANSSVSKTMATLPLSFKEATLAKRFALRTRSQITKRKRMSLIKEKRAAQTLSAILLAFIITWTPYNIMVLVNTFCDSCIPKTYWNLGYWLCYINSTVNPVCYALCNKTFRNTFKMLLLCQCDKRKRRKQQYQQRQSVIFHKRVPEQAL

clearance [1]: 134 mL/min/kg
T1/2 [3]: 4.38 h
Papp B→A (MDR1): 64 ×10⁻⁶ cm/s
CL free (Rattus norvegicus): 2065 mL/min/kg
Vd [6]: 8.4 L/kg
hepatocyte CLint [7]: 96 µL/min/1e6 cells
TIME [8]: > 16 h
fraction unbound [9]: 0.065
half-life [10]: 0.9 h
pKi [11]: 9.94
microsomal CLint [12]: 221 µL/min/mg
T1/2 [13]: 14 h
pKi [14]: 9.86
pKi [15]: 9.94
Structure (SMILES): CC(C)(CCC(C(N)=O)(c1ccccc1)c1ccccc1)N1CC(Oc2cccc(O)c2)C1 [PF-03635659]
ID50 (Canis familiaris [2]): 3 µg
Activity (Oryctolagus cuniculus): Toxic
Activity (Canis familiaris [4]): Non-toxic
Activity (Canis familiaris [5]): Non-toxic
